From PubChem BioAssay (NCI)
Several values for one entry are separate records, joined by “and”; a condition that tells them apart may be missing. Equal values may be shown once.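 Cells were grown in 96-well plates and exposed to each compound for 48 hours at five concentrations; endpoints were interpolated linearly between bracketing concentrations, or set to the highest concentration if not reached. Abbreviation: GI50, concentration required for 50% inhibition of growth. TGI: total growth inhibition.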

What was measured:
Assay in all cases: NCI tumour cell line growth inhibition, 48 h
MOLT-4 leukemia = tested on: MOLT-4 leukemia
CCRF-CEM leukemia = tested on: CCRF-CEM leukemia
MALME-3M melanoma = tested on: MALME-3M melanoma
COLO 205 colon = tested on: COLO 205 colon
SF-539 CNS = tested on: SF-539 CNS
NCI-H226 lung = tested on: NCI-H226 lung
U251 CNS = tested on: U251 CNS
OVCAR-4 ovarian = tested on: OVCAR-4 ovarian
K-562 leukemia = tested on: K-562 leukemia
SR leukemia = tested on: SR leukemia

Row | Compound | TGI (MOLT-4 leukemia) | TGI (CCRF-CEM leukemia) | TGI (MALME-3M melanoma) | TGI (COLO 205 colon) | TGI (SF-539 CNS) | TGI (NCI-H226 lung) | TGI (U251 CNS) | TGI (OVCAR-4 ovarian) | TGI (K-562 leukemia) | TGI (SR leukemia) | GI50 (MOLT-4 leukemia) | GI50 (CCRF-CEM leukemia) | GI50 (MALME-3M melanoma) | GI50 (COLO 205 colon) | GI50 (SF-539 CNS) | GI50 (NCI-H226 lung) | GI50 (U251 CNS) | GI50 (OVCAR-4 ovarian) | GI50 (K-562 leukemia) | GI50 (SR leukemia)
1 | COc1cc2c(cc1OC)C13CCN4C=C5CCOC6CC(=O)N2C1C6C5CC43 (configuration not stated) | > 100 µM | > 100 µM | > 100 µM | > 100 µM | > 100 µM | > 100 µM | > 100 µM | > 100 µM | > 100 µM | > 100 µM |  |  |  |  |  |  |  |  |  | 
2 | O=C(NCCCCCCCCNC(=O)c1cnc2ccccc2n1)c1cnc2ccccc2n1 | > 100 µM | > 100 µM | > 100 µM | > 100 µM | > 100 µM | > 100 µM | > 100 µM | > 100 µM | > 100 µM | > 100 µM |  |  |  |  |  |  |  |  |  | 
3 | CN1CCN(c2ccc(C(=O)Nc3n[nH]c4ccc(Cc5cc(F)cc(F)c5)cc34)c(NC3CCOCC3)c2)CC1 | 7.18 µM and 4.42 µM | > 10 µM and 5.16 µM | 3.01 µM | 3.1 µM | > 10 µM and 2.92 µM | > 10 µM and 3.11 µM | 3.29 µM and 2.95 µM | > 10 µM and 4.09 µM | 4.83 µM and 3.61 µM | 2.15 µM and 1.69 µM | 2.18 µM and 1.82 µM | 2.93 µM and 2.05 µM | 1.5 µM | 1.48 µM | 2.66 µM and 1.56 µM | 1.47 µM and 1.36 µM | 1.64 µM and 1.54 µM | 6.95 µM and 1.45 µM | 1.78 µM and 1.69 µM | 0.0734 µM and 0.0312 µM
4 | COc1ccc(/C(=N/NC(N)=O)C2(O)C(=O)Nc3ccc([N+](=O)[O-])cc32)cc1 (configuration not stated) | 50 µM | 32.3 µM | > 10 µM | 53.4 µM | 31.3 µM | > 100 µM | > 10 µM | 27.1 µM | 58.8 µM | 47.1 µM |  |  |  |  |  |  |  |  |  | 
5 | FC(F)(F)C1(Cl)C(c2ccccc2)=C1c1ccccc1 | > 100 µM | 12.1 µM | 28.5 µM | 30.3 µM | 29.6 µM | 29.2 µM | 28.2 µM | 26.6 µM | 26.2 µM | > 100 µM |  |  |  |  |  |  |  |  |  | 
6 | C=C1C(=O)O[C@H]2[C@H]1CC/C(CNC(=O)/C=C/c1ccc(Br)cc1)=C\CC[C@@]1(C)O[C@@H]21 | 4.25 µM | 4.59 µM | 2.78 µM | 2.75 µM | 2.28 µM | 7.15 µM | 3.09 µM | 2.96 µM | > 33.4 µM |  | 0.678 µM | 0.354 µM | 1.33 µM | 0.987 µM | 0.873 µM | 2.24 µM | 1.46 µM | 1.37 µM | 0.438 µM | 0.255 µM
7 | Nc1ccn(C2OC(CO)C(O)C2F)c(=O)n1 (configuration not stated) |  |  | > 5000 µM | > 5000 µM | > 5000 µM | > 5000 µM | > 5000 µM | > 5000 µM | > 5000 µM | > 5000 µM | 2.98 µM | 1.67 µM | > 5000 µM | 688 µM | > 5000 µM | > 5000 µM | > 5000 µM | > 5000 µM | > 5000 µM | 412 µM and 2500 µM
8 | COc1cc(/C(Cl)=C/C=C/C(=O)c2c(C)[n+]([O-])c3ccc(Cl)cc3[n+]2[O-])cc(OC)c1OC | 3.56 µM | > 50 µM | 18.5 µM | 28.2 µM | > 50 µM | > 50 µM | 10.5 µM | > 50 µM | 6.24 µM | 4.72 µM | 1.35 µM | 1.62 µM | 6.35 µM | 10 µM | 3.67 µM | 13.3 µM | 2.57 µM | 5.07 µM | 1.43 µM | 1.47 µM
9 | Cc1c2cnccc2c(C)c2c1c1cc(C3OCCCO3)ccc1n2C | 1.74 µM | 3.81 µM | 1.12 µM | 1.75 µM | 1.32 µM | 0.962 µM | 1.33 µM | 1.12 µM | 2.69 µM | 1.43 µM | 0.332 µM | 0.291 µM | 0.29 µM | 0.357 µM | 0.272 µM | 0.213 µM | 0.308 µM | 0.264 µM | 0.418 µM | 0.0686 µM
10 | CN(C)CCCOc1ccccc1NC1=C(Cl)C(=O)C(Nc2ccccc2OCCCN(C)C)=C(Cl)C1=O | 0.578 µM | 1.3 µM | 2.43 µM | 0.399 µM | 3.04 µM | 4.22 µM | 1.3 µM | 0.265 µM | 0.793 µM | 5.47 µM | 0.223 µM | 0.262 µM | 0.923 µM | 0.194 µM | 1.66 µM | 1.98 µM | 0.611 µM | 0.136 µM | 0.274 µM | 0.837 µM
11 | CC[P+](C)(Cc1ccccc1)c1ccccc1 (configuration not stated) | > 100 µM | > 100 µM | > 100 µM | > 100 µM | > 100 µM | > 100 µM | > 100 µM | > 100 µM | > 100 µM | > 100 µM |  |  |  |  |  |  |  |  |  | 
